{"source": "paper PMC3092583", "about": "“Enzyme Mechanism and Slow-Onset Inhibition of Plasmodium falciparum Enoyl-Acyl Carrier Protein Reductase by an Inorganic Complex” (2011)", "molecules": {"B1": {"name": "P. falciparum ENR (PfENR), enoyl-acyl carrier protein reductase (Plasmodium falciparum) (protein)", "chain": "IQNNTQKTFHNVLHNEQIRGKEKAFYRKEKRENIFIGNKMKHLNNMNNTHNNNHYMEKEEQDASNIYKIKEENKNEDICFIAGIGDTNGYGWGIAKELSKRNVKIIFGIWPPVYNIFMKNYKNGKFDNDMIIDKDKKMNILDMLPFDASFDTANDIDEETKNNKRYNMLQNYTIEDVANLIHQKYGKINMLVHSLANAKEVQKDLLNTSRKGYLDALSKSSYSLISLCKYFVNIMKPQSSIISLTYHASQKVVPGYGGGMSSAKAALESDTRVLAYHLGRNYNIRINTISAGPLKSRAATAINKLNNTYENNTNQNKNRNSHDVHNIMNNSGEKEEKKNSASQNYTFIDYAIEYSEKYAPLRQKLLSTDIGSVASFLLSRESRAITGQTIYVDNGLNIMFLPDDIYRNENE"}}, "key": {"[1]": {"target": "T1, P. falciparum ENR (PfENR), enoyl-acyl carrier protein reductase (Plasmodium falciparum, UniProt Q9BH77)", "T1 construct": "gene FabI", "T1 sequence (Q9BH77 22-432)": "B1 chain", "assay": "biochemical", "assay_type": "binding"}, "[2]": {"target": "T1, P. falciparum ENR (PfENR), enoyl-acyl carrier protein reductase", "assay": "biochemical", "assay_type": "binding", "remark": "listed apart in the source"}, "[3]": {"substrate": "C/C=C/C(=O)SCCNC(=O)CCNC(=O)[C@H](O)C(C)(C)COP(=O)(O)OP(=O)(O)OC[C@H]1O[C@@H](n2cnc3c(N)ncnc32)[C@H](O)[C@@H]1OP(=O)(O)O", "assay": "steady-state initial velocity kinetics (KM) with purified enzyme; no fluorescence change with free enzyme", "assay_type": "biochemical, Plasmodium falciparum", "conditions": "NADH proposed to bind to a modified form of the enzyme (F) after NAD+ release"}}, "note": "Read-outs that look alike come from different tables or passages of the source.", "data": [{"molecule": "NC(=O)C1=CN([C@@H]2O[C@H](COP(=O)(O)OP(=O)(O)OC[C@H]3O[C@@H](n4cnc5c(N)ncnc54)[C@H](O)[C@@H]3O)[C@@H](O)[C@H]2O)C=CC1", "note": "[NADH]", "values": [{"measurement": "Kd", "setting": "[1]", "result": 398, "unit": "µM"}]}, {"molecule": "CCCC(=O)SCCNC(=O)CCNC(=O)[C@H](O)C(C)(C)COP(=O)(O)OP(=O)(O)OC[C@H]1O[C@@H](n2cnc3c(N)ncnc32)[C@H](O)[C@@H]1OP(=O)(O)O", "note": "[butyryl-CoA]", "values": [{"measurement": "Kd", "setting": "[2]", "result": 1150, "unit": "µM"}]}, {"molecule": "B1", "values": [{"measurement": "Km", "setting": "[3]", "result": 63, "unit": "µM"}]}]}
